Results published in PubChem BioAssay (NCI).
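Values below derive from 48-hour exposures of cells grown in 96-well plates, with endpoints linearly interpolated between the two concentrations bracketing the appropriate inhibition level. Abbreviation: GI50, concentration required for 50% inhibition of growth. TGI denotes the concentration required for complete inhibition of growth.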

What was measured:
Assay in all cases: DTP human tumour cell line panel, 48 h
[1] = system: HOP-62 NSCLC
[2] = system: KM12 colon
[3] = system: HS 578T breast
[4] = system: SNB-19 CNS
[5] = system: SK-MEL-5 melanoma
[6] = system: PC-3 prostate
[7] = system: TK-10 renal
[8] = system: HT29 colon
[9] = system: HCC-2998 colon
[10] = system: IGROV1 ovarian
[11] = system: 786-0 renal
[12] = system: M14 melanoma
[13] = system: CCRF-CEM leukemia
[14] = system: NCI-H23 lung
[15] = system: BT-549 breast
[16] = system: SF-268 CNS
[17] = system: UACC-62 melanoma
[18] = system: LOX IMVI melanoma
[19] = system: U251 CNS
[20] = system: OVCAR-5 ovarian
[21] = system: SR leukemia
[22] = system: OVCAR-3 ovarian
[23] = system: MALME-3M melanoma
[24] = system: UO-31 renal
[25] = system: RXF 393 renal
[26] = system: ACHN renal
[27] = system: SNB-75 CNS
[28] = system: MDA-MB-435
[29] = system: RPMI-8226 leukemia
[30] = system: NCI/ADR-RES ovarian
[31] = system: OVCAR-4 ovarian
[32] = system: UACC-257 melanoma
[33] = system: HCT-15 colon
[34] = system: SF-295 CNS
[35] = system: SF-539 CNS
[36] = system: MOLT-4 leukemia
[37] = system: NCI-H460 lung
[38] = system: K-562 leukemia
[39] = system: EKVX NSCLC
[40] = system: OVCAR-8 ovarian
[41] = system: NCI-H522 lung
[42] = system: MCF7 breast
[43] = system: SK-MEL-2 melanoma
[44] = system: SK-MEL-28 melanoma
[45] = system: SN12C renal
[46] = system: NCI-H226 lung
[47] = system: SW-620 colon
[48] = system: T-47D breast
[49] = system: A498 renal
[50] = system: MDA-MB-231 breast
[51] = system: HCT-116 colon
[52] = system: HOP-92 NSCLC
[53] = system: COLO 205 colon
[54] = system: DU-145 prostate
[55] = system: CAKI-1 renal
[56] = system: HL-60(TB) leukemia
[57] = system: A549 NSCLC
[58] = system: SK-OV-3 ovarian

COc1ccc2c(c1)nc(NNC(=O)c1cnccn1)c1cccn12
GI50 [1]: 96.1 nM
TGI [1]: 3330 nM
GI50 [2]: 245 nM
TGI [2]: 9640 nM
GI50 [3]: 1660 nM
TGI [3]: 11100 nM
GI50 [4]: 381 nM
TGI [4]: 10300 nM
GI50 [5]: 270 nM
TGI [5]: 1220 nM
GI50 [6]: 285 nM
TGI [6]: 4850 nM
GI50 [7]: 157 nM
TGI [7]: 3180 nM
GI50 [8]: 354 nM
GI50 [9]: 1050 nM
TGI [9]: 2430 nM
GI50 [10]: 107 nM
TGI [10]: 2220 nM
GI50 [11]: 432 nM
TGI [11]: 2180 nM
GI50 [12]: 275 nM
TGI [12]: 3780 nM
GI50 [13]: 67.8 nM
TGI [13]: > 44100 nM
GI50 [14]: 640 nM
TGI [14]: 5240 nM
GI50 [15]: 917 nM
TGI [15]: 3620 nM
GI50 [16]: 138 nM
TGI [16]: 6670 nM
GI50 [17]: 268 nM
TGI [17]: 2990 nM
GI50 [18]: 83.7 nM
TGI [18]: 1570 nM
GI50 [19]: 132 nM
TGI [19]: 2860 nM
GI50 [20]: 962 nM
TGI [20]: 5110 nM
GI50 [21]: 240 nM
TGI [21]: > 41300 nM
GI50 [22]: 186 nM
TGI [22]: 3820 nM
GI50 [23]: 1060 nM
TGI [23]: 2930 nM
GI50 [24]: 84.8 nM
TGI [24]: 1510 nM
GI50 [25]: 689 nM
TGI [25]: 2470 nM
GI50 [26]: 90.6 nM
TGI [26]: 1400 nM
GI50 [27]: 458 nM
TGI [27]: 3060 nM
GI50 [28]: 338 nM
TGI [28]: 2590 nM
GI50 [29]: 435 nM
TGI [29]: 4510 nM
GI50 [30]: 250 nM
TGI [30]: 3260 nM
GI50 [31]: 114 nM
TGI [31]: 2300 nM
GI50 [32]: 756 nM
TGI [32]: 4420 nM
GI50 [33]: 63.1 nM
TGI [33]: 43000 nM
GI50 [34]: 175 nM
TGI [34]: 1760 nM
GI50 [35]: 393 nM
TGI [35]: 2600 nM
GI50 [36]: 159 nM
TGI [36]: > 85500 nM
GI50 [37]: 125 nM
TGI [37]: 4020 nM
GI50 [38]: 393 nM
TGI [38]: > 100000 nM
GI50 [39]: 161 nM
TGI [39]: 3700 nM
GI50 [40]: 229 nM
TGI [40]: 3050 nM
GI50 [41]: 393 nM
TGI [41]: 5370 nM
GI50 [42]: 266 nM
TGI [42]: 1860 nM
GI50 [43]: 697 nM
TGI [43]: 3880 nM
GI50 [44]: 444 nM
TGI [44]: 3520 nM
GI50 [45]: 408 nM
TGI [45]: 3370 nM
GI50 [46]: 321 nM
TGI [46]: 2720 nM
GI50 [47]: 403 nM
TGI [47]: 9430 nM
GI50 [48]: 348 nM
TGI [48]: 3990 nM
GI50 [49]: 1310 nM
TGI [49]: 2930 nM
GI50 [50]: 682 nM
TGI [50]: 3390 nM
GI50 [51]: 143 nM
TGI [51]: 2710 nM
GI50 [52]: 952 nM
TGI [52]: 3220 nM
GI50 [53]: 264 nM
TGI [53]: 3010 nM
GI50 [54]: 156 nM
TGI [54]: 6300 nM
GI50 [55]: 659 nM
TGI [55]: 4810 nM
GI50 [56]: 257 nM
GI50 [57]: 298 nM
TGI [57]: 3450 nM
GI50 [58]: 281 nM
TGI [58]: 3000 nM
